US10550143B2, “C,O-spiro aryl glycoside compounds, preparation therefor and use thereof” (SHANGHAI INSTITUTE OF MATERIA MEDICA, CHINESE ACADEMY OF …, priority 2015, dated 2020)
Marks after values point to notes of the source that are not given here.

Key:
Format in all cases: in vivo, mouse
[1] = test system: db/db mice; experiment: Acute administration at multiple doses, random blood glucose in db/db mice; conditions: for Blood glucose level 0 h: before administration
Experimental: (1) 127 db/db mice (half male and half female) entered the animal laboratory of the institute at 7 weeks of age and were grouped at 10 weeks of age. Random blood glucose and random body weight of all db/db mice were determined at 9:00 am, and then fasted for 6 hours (free drinking). Fasting blood glucose and fasting body weight were determined, and blood was collected (10 μl EDTA+20 μl tail blood, centrifugated to collect supernatant) to determine the insulin content. […] The db/db mice were once orally administered at a dose of 10 mL/kg. Blood glucose levels were measured before administration, and at 1 h, 2 h, 3 h, 4 h, 6 h after administration, and the administration times and body weights were recorded. Mice took food and water freely during the experiment.
Average hypoglycemic rate %=(model control group−administration group)/(model control group−blank control group)*100%

[2] = test system: db/db mice; experiment: Chronic administration, oral glucose tolerance in db/db mice; conditions: for Blood glucose AUC0-2 h / Blood glucose (mmol/L) 0 min / Blood glucose (mmol/L) 15 min / Blood glucose (mmol/L) 30 min / Blood glucose (mmol/L) 60 min / Blood glucose (mmol/L) 90 min / Blood glucose (mmol/L) 120 min / AUC0-2 h reduction rate (%): glucose tolerance, chronic administration; for AUC0-2 h reduction rate (%): vs vehicle
Experimental: (§1) Oral gavage administrated, daily dose volume was 10 mL/kg, administered once daily. Administration time was 9: 00-10:00 daily, and the administration period was 5 weeks.
The glucose tolerance of mice of normal control group, model control group, test substance group and positive control group were determined 3 weeks after administration of drug, oral administrated with 1.5 g/kg of glucose, and taken 2 μL of blood on the tail. 4 μL of normal saline was added to 96 well sharp bottom plate to dilute evenly, and then the blood glucose was measured. The blood glucose levels before the sugar administration and at 15, 30, 60, 90 and 120 min after the sugar administration were measured. The true blood glucose level was calculated and the area under the blood glucose curve within 120 min was calculated by the following formula: AUC0-2h (mmol/L·h)=(BG0+BG15)×0.25/2+(BG15+BG30)×0.25/2+(BG30+BG60)×0.5/2+(BG60+[…])×1.0/2 Note: BG0, BG15, BG30, BG60 and BG120 represent the blood glucose levels before the sugar administration, and at 15, 30, 60, and 120 min after sugar administration, respectively. Average hypoglycemic rate %=(solvent control group AUC0-2h−administration group AUC0-2h)/solvent control group AUC0-2h*100%

[3] = test system: C57BL/6J mice; experiment: Acute administration of A28 at multiple doses, urinary glucose of C57BL/6J mice; conditions: for Total sugar excretion / Urine concentration / Urine volume: 24 h urine
Experimental: (1) 90 normal male C57BL/6J mice were selected and randomly divided into 9 groups according to body weight and blood glucose, 10 in each group. […] After oral gavage, the mice were placed in rats (mice) metabolic cages, […] and urine was collected after 24 h, and the urine volume was recorded, then preserved under −20° C. Rats take food and water freely during the experimental period.
(2) Index Determination: Glucose levels in urine are measured by the glucose assay kit.

[4] = test system: db/db mice; experiment: Chronic administration, fasting blood glucose in db/db mice; conditions: for fasting blood glucose Pre: before administration; for Hypoglycemic rate % week 1 / Hypoglycemic rate % week 2 / Hypoglycemic rate % week 3 / Hypoglycemic rate % week 4: fasting blood glucose
Experimental: as §1
The random blood glucose of mice in the normal control group, model control group, test substance administration group and positive control group were determined on the 7th, 14th, 21st, 28th day (9: 00-10:00) every week after the first administration, and food was removed and after 6 hours of starvation, the fasting blood glucose in each group was measured. Free drinking during the hunger process. The rate of decrease of blood glucose was calculated according to the following formula: Average hypoglycemic rate %=(Blood glucose of model control group−Blood glucose of administration group)/Model control group×100%

CCc1ccc(Cc2cc3c(cc2Cl)CO[C@]32O[C@H](C)[C@@H](O)[C@H](O)[C@H]2O)s1 [Example A28, (1S,3′R,4′S,5′S,6′R)-6′-methyl-6-((5-ethylthienyl)-2-methyl)-5-chloro-3′,4′,5′,6′-tetrahydro-3H-spiro[isobenzofuran-1,2′-pyran]-3′,4′,5′-triol]
effective dose, reduction of blood glucose levels ([1]; single administration, within 6 h): 3 mg/kg | AUC0-6 h ([1]; single oral 0.3 mg/kg): 103.7 ± 7.7 mmol·h/L | Blood glucose level 1 h ([1]; single oral 0.3 mg/kg): 19.4 ± 1.2 mmol/L | Blood glucose level 2 h ([1]; single oral 0.3 mg/kg): 18.0 ± 0.9 mmol/L | Blood glucose level 3 h ([1]; single oral 0.3 mg/kg): 17.2 ± 1.5 mmol/L | Blood glucose level 4 h ([1]; single oral 0.3 mg/kg): 16.5 ± 1.5 mmol/L | Blood glucose level 6 h ([1]; single oral 0.3 mg/kg): 15.4 ± 1.7 mmol/L | Blood glucose level 0 h ([1]; single oral 0.3 mg/kg): 17.9 ± 1.5 mmol/L | AUC0-6 h ([1]; single oral 1 mg/kg): 87.3 ± 4.8 mmol·h/L | Blood glucose level 1 h ([1]; single oral 1 mg/kg): 15.9 ± 0.7 mmol/L | Blood glucose level 2 h ([1]; single oral 1 mg/kg): 13.7 ± 0.6 mmol/L | Blood glucose level 3 h ([1]; single oral 1 mg/kg): 14.6 ± 0.9 mmol/L | Blood glucose level 4 h ([1]; single oral 1 mg/kg): 14.9 ± 1.1 mmol/L | Blood glucose level 6 h ([1]; single oral 1 mg/kg): 12.3 ± 0.9 mmol/L | Blood glucose level 0 h ([1]; single oral 1 mg/kg): 16.8 ± 1.2 mmol/L | AUC0-6 h ([1]; single oral 3 mg/kg): 62.7 ± 3.3 mmol·h/L | Blood glucose level 1 h ([1]; single oral 3 mg/kg): 11.2 ± 1.2 mmol/L | Blood glucose level 2 h ([1]; single oral 3 mg/kg): 9.1 ± 0.5 mmol/L | Blood glucose level 3 h ([1]; single oral 3 mg/kg): 10.2 ± 0.7 mmol/L | Blood glucose level 4 h ([1]; single oral 3 mg/kg): 8.7 ± 0.6 mmol/L | Blood glucose level 6 h ([1]; single oral 3 mg/kg): 9.7 ± 0.8 mmol/L | Blood glucose level 0 h ([1]; single oral 3 mg/kg): 18.7 ± 1.2 mmol/L | AUC0-6 h ([1]; single oral 10 mg/kg): 47.2 ± 1.7 mmol·h/L | Blood glucose level 1 h ([1]; single oral 10 mg/kg): 8.2 ± 0.4 mmol/L | Blood glucose level 2 h ([1]; single oral 10 mg/kg): 6.0 ± 0.6 mmol/L | Blood glucose level 3 h ([1]; single oral 10 mg/kg): 7.1 ± 0.5 mmol/L | Blood glucose level 4 h ([1]; single oral 10 mg/kg): 7.2 ± 0.6 mmol/L | Blood glucose level 6 h ([1]; single oral 10 mg/kg): 6.1 ± 0.4 mmol/L | Blood glucose level 0 h ([1]; single oral 10 mg/kg): 18.3 ± 1.7 mmol/L | improvement of oral glucose tolerance compared with Dapagliflozin ([2]; after 3 weeks of chronic administration): stronger than that of Dapagliflozin of the same dose | Blood glucose AUC0-2 h ([2]; dose 0.3 mg/kg): 6.3 ± 1.3 | Blood glucose (mmol/L) 0 min ([2]; dose 0.3 mg/kg): 12.3 ± 0.9 mmol/L | Blood glucose (mmol/L) 15 min ([2]; dose 0.3 mg/kg): 22.7 ± 1.4 mmol/L | Blood glucose (mmol/L) 30 min ([2]; dose 0.3 mg/kg): 21.4 ± 1.1 mmol/L | Blood glucose (mmol/L) 60 min ([2]; dose 0.3 mg/kg): 13.5 ± 0.7 mmol/L | Blood glucose (mmol/L) 90 min ([2]; dose 0.3 mg/kg): 12.5 ± 0.9* * mmol/L | Blood glucose (mmol/L) 120 min ([2]; dose 0.3 mg/kg): 10.9 ± 1.0* * mmol/L | AUC0-2 h reduction rate (%) ([2]; dose 0.3 mg/kg): 57.2% | Blood glucose AUC0-2 h ([2]; dose 1 mg/kg): 4.7 ± 1.9 | Blood glucose (mmol/L) 0 min ([2]; dose 1 mg/kg): 10.4 ± 1.0 mmol/L | Blood glucose (mmol/L) 15 min ([2]; dose 1 mg/kg): 16.9 ± 0.8 mmol/L | Blood glucose (mmol/L) 30 min ([2]; dose 1 mg/kg): 18.7 ± 0.7 mmol/L | Blood glucose (mmol/L) 60 min ([2]; dose 1 mg/kg): 11.1 ± 0.5 mmol/L | Blood glucose (mmol/L) 90 min ([2]; dose 1 mg/kg): 10.4 ± 0.6* * mmol/L | Blood glucose (mmol/L) 120 min ([2]; dose 1 mg/kg): 8.7 ± 0.5 mmol/L | AUC0-2 h reduction rate (%) ([2]; dose 1 mg/kg): 68.2% | Blood glucose AUC0-2 h ([2]; dose 3 mg/kg): 6.1 ± 0.9 | Blood glucose (mmol/L) 0 min ([2]; dose 3 mg/kg): 8.1 ± 1.0 mmol/L | Blood glucose (mmol/L) 15 min ([2]; dose 3 mg/kg): 16.1 ± 2.4 mmol/L | Blood glucose (mmol/L) 30 min ([2]; dose 3 mg/kg): 17.4 ± 2.6 mmol/L | Blood glucose (mmol/L) 60 min ([2]; dose 3 mg/kg): 9.1 ± 1.0 mmol/L | Blood glucose (mmol/L) 90 min ([2]; dose 3 mg/kg): 8.9 ± 0.8 mmol/L | Blood glucose (mmol/L) 120 min ([2]; dose 3 mg/kg): 6.9 ± 0.8 mmol/L | AUC0-2 h reduction rate (%) ([2]; dose 3 mg/kg): 58.9% | Blood glucose AUC0-2 h ([2]; dose 10 mg/kg): 2.3 ± 0.8 | Blood glucose (mmol/L) 0 min ([2]; dose 10 mg/kg): 7.2 ± 0.6 mmol/L | Blood glucose (mmol/L) 15 min ([2]; dose 10 mg/kg): 11.3 ± 0.6 mmol/L | Blood glucose (mmol/L) 30 min ([2]; dose 10 mg/kg): 12.3 ± 1.0 mmol/L | Blood glucose (mmol/L) 60 min ([2]; dose 10 mg/kg): 7.1 ± 0.5 mmol/L | Blood glucose (mmol/L) 90 min ([2]; dose 10 mg/kg): 6.5 ± 0.3 mmol/L | Blood glucose (mmol/L) 120 min ([2]; dose 10 mg/kg): 6.2 ± 0.5 mmol/L | AUC0-2 h reduction rate (%) ([2]; dose 10 mg/kg): 84.6% | urinary exclusion effect compared with Dapagliflozin ([3]; at the same dose): equal to or stronger than positive control Dapagliflozin | Total sugar excretion ([3]; oral 0.3 mg/kg): 10.31 ± 3.26 mg/100 g | Urine concentration ([3]; oral 0.3 mg/kg): 7.91 ± 2.50 mmol/L | Urine volume ([3]; oral 0.3 mg/kg): 2.1 ± 0.7 mL | Total sugar excretion ([3]; oral 1 mg/kg): 175.49 ± 55.53 mg/100 g | Urine concentration ([3]; oral 1 mg/kg): 133.28 ± 42.18 mmol/L | Urine volume ([3]; oral 1 mg/kg): 1.8 ± 0.6 mL | Total sugar excretion ([3]; oral 3 mg/kg): 440.02 ± 139.25 mg/100 g | Urine concentration ([3]; oral 3 mg/kg): 265.71 ± 84.09 mmol/L | Urine volume ([3]; oral 3 mg/kg): 2.1 ± 0.7 mL | Total sugar excretion ([3]; oral 10 mg/kg): 712.00 ± 225.32 mg/100 g | Urine concentration ([3]; oral 10 mg/kg): 344.07 ± 108.88 mmol/L | Urine volume ([3]; oral 10 mg/kg): 2.5 ± 0.8 mL | effective dose, urine glucose excretion ([3]; single oral, within 24 hours): ≤ 0.3 mg/kg | fasting blood glucose week 1 ([4]; 0.3 mg/kg once daily oral): 10.6 ± 0.9 mmol/L | fasting blood glucose week 2 ([4]; 0.3 mg/kg once daily oral): 10.5 ± 0.8 mmol/L | fasting blood glucose week 3 ([4]; 0.3 mg/kg once daily oral): 12.3 ± 0.9 mmol/L | fasting blood glucose week 4 ([4]; 0.3 mg/kg once daily oral): 12.6 ± 1.2 mmol/L | fasting blood glucose Pre ([4]; 0.3 mg/kg once daily oral): 13.2 ± 0.7 mmol/L | fasting blood glucose week 1 ([4]; 1 mg/kg once daily oral): 8.7 ± 0.6 mmol/L | fasting blood glucose week 2 ([4]; 1 mg/kg once daily oral): 9.4 ± 0.9 mmol/L | fasting blood glucose week 3 ([4]; 1 mg/kg once daily oral): 10.4 ± 1.0 mmol/L | fasting blood glucose week 4 ([4]; 1 mg/kg once daily oral): 10.0 ± 0.7 mmol/L | fasting blood glucose Pre ([4]; 1 mg/kg once daily oral): 13.2 ± 1.3 mmol/L | fasting blood glucose week 1 ([4]; 3 mg/kg once daily oral): 8.6 ± 0.5 mmol/L | fasting blood glucose week 2 ([4]; 3 mg/kg once daily oral): 6.8 ± 0.6 mmol/L | fasting blood glucose week 3 ([4]; 3 mg/kg once daily oral): 8.1 ± 0.5 mmol/L | fasting blood glucose week 4 ([4]; 3 mg/kg once daily oral): 8.5 ± 0.6 mmol/L | fasting blood glucose Pre ([4]; 3 mg/kg once daily oral): 13.5 ± 1.5 mmol/L | fasting blood glucose week 1 ([4]; 10 mg/kg once daily oral): 7.6 ± 0.6 mmol/L | fasting blood glucose week 2 ([4]; 10 mg/kg once daily oral): 6.9 ± 0.5 mmol/L | fasting blood glucose week 3 ([4]; 10 mg/kg once daily oral): 7.2 ± 0.6 mmol/L | fasting blood glucose week 4 ([4]; 10 mg/kg once daily oral): 7.3 ± 0.5 mmol/L | fasting blood glucose Pre ([4]; 10 mg/kg once daily oral): 13.8 ± 1.2 mmol/L | Hypoglycemic rate % week 1 ([4]; 0.3 mg/kg once daily oral): 21.4% | Hypoglycemic rate % week 2 ([4]; 0.3 mg/kg once daily oral): 52.3% | Hypoglycemic rate % week 3 ([4]; 0.3 mg/kg once daily oral): 30.6% | Hypoglycemic rate % week 4 ([4]; 0.3 mg/kg once daily oral): 21.1% | Hypoglycemic rate % week 1 ([4]; 1 mg/kg once daily oral): 35.0% | Hypoglycemic rate % week 2 ([4]; 1 mg/kg once daily oral): 57.2% | Hypoglycemic rate % week 3 ([4]; 1 mg/kg once daily oral): 41.5% | Hypoglycemic rate % week 4 ([4]; 1 mg/kg once daily oral): 37.8% | Hypoglycemic rate % week 1 ([4]; 3 mg/kg once daily oral): 36.2% | Hypoglycemic rate % week 2 ([4]; 3 mg/kg once daily oral): 69.2% | Hypoglycemic rate % week 3 ([4]; 3 mg/kg once daily oral): 54.2% | Hypoglycemic rate % week 4 ([4]; 3 mg/kg once daily oral): 46.8% | Hypoglycemic rate % week 1 ([4]; 10 mg/kg once daily oral): 43.2% | Hypoglycemic rate % week 2 ([4]; 10 mg/kg once daily oral): 68.9% | Hypoglycemic rate % week 3 ([4]; 10 mg/kg once daily oral): 59.5% | Hypoglycemic rate % week 4 ([4]; 10 mg/kg once daily oral): 54.5% | effective dose, fasting blood glucose, random blood glucose and HbA1c reduction ([4]; four weeks chronic administration): 0.3 mg/kg
